Four compounds from US6759207B2, “Fluorogenic or fluorescent reporter molecules and their applications for whole-cell fluorescence screening assays for caspases and other enzymes and the use thereof” (Cytovia, Inc., priority 1997, dated 2004) can be followed below.

Peptide text beside a SMILES is read from it. * marks the point of attachment. NH(Rh110(N'-COOEt)) = CCOC(=O)Nc1ccc2c(c1)Oc1cc(N*)ccc1C21OC(=O)c2ccccc21

The test system of test [1] is Jurkat cells. Nature of the test: Cleavage of caspase-3 substrate by whole apoptotic Jurkat cells (plate reader). It counts as cell-based. How it is done: In order to quantitate the cleavage of N-Ac-[…]-N-octyloxycarbonyl-R110 SEQ ID NO:5 by whole cells, an assay was performed in which the fluorescent signal generated from this substrate by apoptotic Jurkat cells was measured in a spectrofluorometric plate reader. Jurkat cells were incubated for varying times in 96-well plates with 500 ng/ml antiFas antibody to induce apoptosis. Control cells were incubated with PBS. At the end of the treatment period, the cells were harvested, centrifuged in 1.5 ml tubes and resuspended in 25 μL of medium containing 1% FBS. 25 μL of caspase buffer containing 50 μM N-Ac-DEVD-N′-octyloxycarbonyl R110 SEQ ID NO:5 was added, and the cells were incubated for one hour. At the end of the incubation period, three 5 μL aliquots from each time point were placed in 96-well plates and the fluorescence was measured at excitation/emission wavelength of 485/530 nm. […] However, cells treated with antiFas gave a detectable fluorescent signal at about one hour after apoptosis induction, and the signal continued to increase up to the 2 hour timepoint, with a signal to background ratio of about 7.

For test [2], the system named is apoptotic HL-60 cell lysates. Nature of the test: Cleavage of caspase-3 substrates by apoptotic HL-60 cell lysates. It counts as biochemical. To be noted: 10 μM or 50 μM substrate, 37° C., vinblastine treated HL-60 cell lysates. As for the experimental part: (§1) The caspase substrates were assayed by recombinant caspase-3 and by lysates prepared from apoptotic HL-60 cells. The assays were carried out at 37° C. in 96-well plates in a 100 μL incubation containing 30 μL of caspase-3 preparation or cell lysate, 10 μM or 50 μM of the substrate, and caspase assay buffer (40 mM 1,4-piperazinebis(ethansulfonic acid) (PIPES, Aldrich Chemical Company) pH 7.2; 100 mM NaCl; 10% sucrose; 0.1% CHAPS; 1 mM EDTA; 10 mM DTT). At the end of the incubation period, the fluorescence was measured on a Bio-Tek FL500 fluorescence microplate reader using excitation and emission wavelengths of 485 and 530 nm, respectively. Two different controls were run: 1) an enzyme blank consisting of samples containing substrate, but without enzyme or cell lysate; 2) an inhibitor control, consisting of samples which contained the caspase inhibitor, Ac-DEVD-CHO (f.c., 10 μM).

Test [3] relates to Jurkat cells. Nature of the test: Staining of apoptotic Jurkat cells by caspase-3 substrate (whole-cell assay, microscopy). It counts as cell-based. The settings on record: 50 μM substrate. As for the experimental part:
(§2) The ability of N-Ac-DEVD-N′-octyloxycarbonyl-R110 SEQ ID NO:5 to detect caspase activation in intact cells was tested using apoptotic HL-60 and Jurkat cells. These whole-cell assays were carried out in two stages: 1) induction of apoptosis; 2) incubation with the substrate. For HL-60 cells, apoptosis was induced by treatment with 10 μg/ml vinblastine for 4 hours. Control samples were treated with DMSO. For Jurkat cells, apoptosis was induced by treatment with 500 ng/ml agonistic antiFas antibody for 2 hours. Control samples were treated with PBS. Following apoptosis induction, the cells were incubated with 50 μM N-Ac-DEVD-N′-octyloxycarbonyl-R110 SEQ ID NO:5 in caspase assay buffer (40 mM PIPES, pH 7.4; 100 mM NaCl; 10% sucrose; 1 mM EDTA; 10 mM DTT). The cells were than transferred to a glass microslide and viewed by epifluorescent illumination on a Nikon inverted microscope.

The target of test [4] is T1, recombinant human caspase-3 (Homo sapiens, UniProt P42574).
T1 sequence (P42574 29-175 limits assumed): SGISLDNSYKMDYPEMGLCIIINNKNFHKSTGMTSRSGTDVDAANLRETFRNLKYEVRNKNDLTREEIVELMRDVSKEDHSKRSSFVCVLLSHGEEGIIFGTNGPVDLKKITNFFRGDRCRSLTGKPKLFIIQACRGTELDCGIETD
T1 sequence (P42574 176-277 limits assumed): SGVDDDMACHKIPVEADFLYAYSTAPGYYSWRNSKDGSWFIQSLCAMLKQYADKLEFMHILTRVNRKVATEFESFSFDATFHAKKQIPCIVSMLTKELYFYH
Nature of the test: Cleavage of caspase-3 substrates by recombinant human caspase-3. Format: biochemical. To be noted: 10 μM or 50 μM substrate, 37° C. How it is done: as §1

Test [5] deals with HL-60 cells. Nature of the test: Staining of apoptotic HL-60 cells by caspase-3 substrate (whole-cell assay, microscopy). To be noted: 50 μM substrate. Format: cell-based. How it is done:
as §2

For test [6], the system named is HL-60 cells. Nature of the test: Uptake and cleavage of aminopeptidase substrate by HL-60 cells. Format: cell-based. To be noted: 10 μM substrate, 3 hours at 37° C.; for fluorescence of cells under microscope: FIGS. 7A-B; for Counts/μg protein: excitation 485 nm, emission 525 nm. How it is done: HL-60 cells were placed in 5 ml of Iscove's medium (without serum or phenol-red) containing 10 μM N-G-N′-octyloxycarbonyl-R110 or 10 μM N-Z-G-N-octyloxycarbonyl-R110. Three million HL-60 cells were incubated for 3 hours at 37° C. in a CO2 incubator, recovered by centrifugation, and washed in 50 μL of ice-cold medium. The cells were re-centrifuged and the final pellet was resuspended in 50 μL of fresh medium. Aliquots of each cell suspension were placed in a microtiter 96-well plate and read on a Wallac 1420 microplate reader with excitation wavelength at 485 nm, emission wavelength at 525 nm. Aliquots of each cell suspension were also placed on microslides and viewed on a Nikon inverted microscope with epifluorescent illumination. […] There was no signal from the cells incubated with 10 μM N-Z-G-N′-octyloxycarbonyl-R110.

Test [7] relates to HL-60 cell lysates (aminopeptidases). Nature of the test: Cleavage of aminopeptidase substrate by HL-60 cell lysates (microtiter plate assay). Format: biochemical. The settings on record: FIG. 6. How it is done: Aminopeptidases are present in many cells and sequentially remove unblocked amino acid residues from peptides, starting from the N-terminus. Peptides with blocked amino termini are not cleaved. HL-60 lysates were prepared by homogenizing HL-60 cells in caspase buffer, and the ability of these lysates to cleave N-Z-G-N′-octyloxycarbonyl R110 and N-G-N′-octyloxycarbonyl-R110 was tested in a microtiter plate assay.

Test [8] addresses T2, recombinant human caspase-6 (Homo sapiens, UniProt P55212).
T2 sequence (P55212 24-179 limits assumed): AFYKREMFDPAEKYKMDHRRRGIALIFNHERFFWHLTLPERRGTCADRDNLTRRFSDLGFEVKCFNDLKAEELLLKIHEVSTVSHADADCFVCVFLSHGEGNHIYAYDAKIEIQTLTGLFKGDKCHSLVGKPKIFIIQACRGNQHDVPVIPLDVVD
T2 sequence (P55212 194-293 limits assumed): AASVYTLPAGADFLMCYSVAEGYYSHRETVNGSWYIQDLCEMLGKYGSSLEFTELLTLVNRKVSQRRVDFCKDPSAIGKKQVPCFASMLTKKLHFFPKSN
Nature of the test: Cleavage of caspase-8 substrate by recombinant human caspase-6. Format: biochemical. The settings on record: 10 μM substrate, 37° C. How it is done: (§3) N-Ac-LEVD-N-ethoxycarbonyl R110 SEQ ID NO:9 was assayed by recombinant human caspase-3, 6, 7, and 8. The assays were carried out at 37° C. in 96-well plates in a 100 μL incubation containing recombinant human caspase, 10 μM of N-Ac-LEVD-N′-ethoxycarbonyl R110 SEQ ID NO:9, and caspase assay buffer (40 mM PIPES, pH 7.2; 100 mM NaCl; 10% sucrose; 0.1% CHAPS; 1 mM EDTA; 10 mM DTT). At the end of the incubation period, the fluorescence was determined on a Bio-Tek FL500 fluorescence microplate reader using excitation and emission wavelengths of 485 and 530 nm, respectively. In order to correct for the endogenous fluorescence of the uncleaved substrate, controls were run which consisted of samples containing 10 μM N-Ac-LEVD-N′-ethoxycarbonyl R110 SEQ ID NO:9 without enzyme (“enzyme blanks”). Additional controls included samples containing the caspase inhibitor Ac-DEVD-CHO SEQ ID NO:5. […] Caspase-3 cleaved N-Ac-LEVD-N′-ethoxycarbonyl R110 SEQ ID NO:9 less efficiently, yielding a signal that was about 5-fold above the enzyme blank value.

Test [9] deals with T3, recombinant human caspase-7 (Homo sapiens, UniProt P55210).
T3 sequence (P55210 24-198 limits assumed): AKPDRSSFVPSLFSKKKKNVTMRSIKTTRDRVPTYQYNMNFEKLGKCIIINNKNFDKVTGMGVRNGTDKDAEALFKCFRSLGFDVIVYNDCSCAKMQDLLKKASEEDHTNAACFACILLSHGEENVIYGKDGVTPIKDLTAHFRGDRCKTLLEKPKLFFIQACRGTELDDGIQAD
T3 sequence (P55210 207-303 limits assumed): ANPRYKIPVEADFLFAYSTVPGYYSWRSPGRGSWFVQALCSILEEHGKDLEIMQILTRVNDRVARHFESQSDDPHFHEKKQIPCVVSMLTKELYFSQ
Nature of the test: Cleavage of caspase-8 substrate by recombinant human caspase-7. Format: biochemical. The settings on record: 10 μM substrate, 37° C. How it is done:
as §3

Test [10] addresses recombinant human caspase-8 (Homo sapiens, UniProt Q14790). Nature of the test: Cleavage of caspase-8 substrate by recombinant human caspase-8. It counts as biochemical. The settings on record: 10 μM substrate, 37° C. How it is done: as §3
For test [11], the target named is T1, recombinant human caspase-3. Nature of the test: Cleavage of caspase-8 substrate by recombinant human caspase-3. It counts as biochemical. To be noted: 10 μM substrate, 37° C. How it is done:
as §3

Chain of recombinant human caspase-8 (Q14790 217-374 limits assumed): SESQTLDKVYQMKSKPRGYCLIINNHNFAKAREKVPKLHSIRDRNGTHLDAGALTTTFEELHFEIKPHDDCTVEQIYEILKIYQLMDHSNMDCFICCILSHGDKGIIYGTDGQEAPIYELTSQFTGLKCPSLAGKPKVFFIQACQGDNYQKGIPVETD
Chain of recombinant human caspase-8 (Q14790 385-479 limits assumed): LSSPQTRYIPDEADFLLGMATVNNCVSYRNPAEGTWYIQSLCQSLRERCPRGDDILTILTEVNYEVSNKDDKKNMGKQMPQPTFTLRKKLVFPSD

With `CCCCCCCCOC(=O)Nc1ccc2c(c1)Oc1cc(NC(=O)[C@H](CC(=O)O)NC(=O)[C@@H](NC(=O)[C@H](CCC(=O)O)NC(=O)[C@H](CC(=O)O)NC(C)=O)C(C)C)ccc1C21OC(=O)c2ccccc21` (stereo partly drawn) [N-Ac-DEVD-N′-octyloxycarbonyl-R110, N-(Ac-Asp-Glu-Val-Asp)-N′-octyloxycarbonyl-Rhodamine 110], the “signal to background ratio” value with Jurkat cells [1] (antiFas-treated Jurkat cells, 2 hour timepoint, 485/530 nm) is given as “about 7”. Besides, the “fluorescent signal of PBS-treated cells” value with Jurkat cells [1] (control Jurkat cells) is given as “small fluorescent signal which did not increase”. In test [2], the “Cleavage by Apoptotic Lysates” value is listed as “Good”. In the test with Jurkat cells [3] (500 ng/ml agonistic antiFas antibody for 2 hours), the “staining of antiFas-treated Jurkat cells” value is “intense staining”. The “staining of control Jurkat cells” value in the test with Jurkat cells [3] (PBS-treated) is “only light staining”. The “Cleavage by Caspase-3” value in test [4] is recorded as “Good”. Also, the “staining of vinblastine-treated HL-60 cells” value with HL-60 cells [5] (apoptosis induced by 10 μg/ml vinblastine for 4 hours) is “intensely stained”. In addition, the “staining of DMSO-treated HL-60 cells” value in the test on HL-60 cells [5] (control cells) was “some staining”.
As to `CCCCCCCCOC(=O)Nc1ccc2c(c1)Oc1cc(NC(=O)CNC(=O)OCc3ccccc3)ccc1C21OC(=O)c2ccccc21` (centres unmarked) [N-Z-G-N′-octyloxycarbonyl-R110, N-[Z-Gly]-N′-octyloxycarbonyl-Rhodamine-110], in the test with HL-60 cells [6], the “signal from cells (microplate reader)” value is “no signal”, the “fluorescence of cells under microscope” value is “no fluorescence signal was observed” and the Counts/μg protein was 0 Counts/μg protein. The “cleavage by HL-60 cell lysates” value in test [7] was “no signal was generated”.
`CCOC(=O)Nc1ccc2c(c1)Oc1cc(NC(=O)[C@H](CC(=O)O)NC(=O)[C@@H](NC(=O)[C@H](CCC(=O)O)NC(=O)[C@H](CC(C)C)NC(C)=O)C(C)C)ccc1C21OC(=O)c2ccccc21` (stereo partly drawn) [N-Ac-LEVD-N′-ethoxycarbonyl R110, N-(Ac-Leu-Glu-Val-Asp)-N′-ethoxycarbonyl-Rhodamine 110] (Ac-LEVD-{NH(Rh110(N'-COOEt))}): the “signal to background ratio” value in test [8] is “about 13”; in [10], “about 26”. Besides, the fluorescent signal result in test [9] is listed as “virtually no signal”. In test [11], the “signal above the enzyme blank value” is “about 5 fold”.
Regarding `Br.CCCCCCCCOC(=O)Nc1ccc2c(c1)Oc1cc(NC(=O)CN)ccc1C21OC(=O)c2ccccc21` (centres unmarked) [N-G-N′-octyloxycarbonyl-R110, N-Gly-N′-octyloxycarbonyl-Rhodamine-110 HBr], in the test with HL-60 cells [6], the “signal from cells (microplate reader)” value is “showed signal”, the “fluorescence of cells under microscope” value is recorded as “showed fluorescence under microscope” and the Counts/μg protein was found to be 12.98 Counts/μg protein. Also, the “cleavage by HL-60 cell lysates” value in test [7] is “readily cleaved”.
